# Assays:
# [1] = molecular target: T1, NLRP3 (Homo sapiens, UniProt Q96P20); test: Human whole blood IL1β release assay; type: cell-based; settings: LPS 1 μg/ml, nigericin 10 μM, IL-1β AlphaLisa, 10 μM top dose (Example 2: top dose of 30 μM), read-out: HWB IC50
# Procedure, shortened: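 Healthy-donor heparinised human whole blood with 1 μg/ml LPS, compound (8-point half-log dilution, 10 μM top dose unless stated; 0.1% DMSO vehicle) for 3 h at 37 °C, then nigericin 10 μM final for 1 h. Supernatant IL-1β by AlphaLISA; IC50 from 4-parameter variable-slope fit.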
# [2] = molecular target: T1, NLRP3; test: THP-1 cells pyroptosis assay; type: cell-based; parameters: Seed THP-1 cells (25,000 cells/well) containing 1.0 μg/ml LPS; host or cells: THP-1; settings: LPS 1.0 μg/ml, nigericin 5 μM, resazurin readout, 10 μM top dose (Example 2: top dose of 30 μM)
# Procedure, shortened: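 Pyroptosis induced by 5 μM nigericin (1 h) in LPS-primed (1 μg/ml) THP-1 cells, 25,000/well in serum-free RPMI, after 3 h compound pre-treatment (8 points, 10 μM top unless stated). Surviving cells measured with 100 μM resazurin, Ex 560/Em 590; IC50 via variable-slope 4-parameter regression.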
# T1 sequence (Q96P20 whole entry): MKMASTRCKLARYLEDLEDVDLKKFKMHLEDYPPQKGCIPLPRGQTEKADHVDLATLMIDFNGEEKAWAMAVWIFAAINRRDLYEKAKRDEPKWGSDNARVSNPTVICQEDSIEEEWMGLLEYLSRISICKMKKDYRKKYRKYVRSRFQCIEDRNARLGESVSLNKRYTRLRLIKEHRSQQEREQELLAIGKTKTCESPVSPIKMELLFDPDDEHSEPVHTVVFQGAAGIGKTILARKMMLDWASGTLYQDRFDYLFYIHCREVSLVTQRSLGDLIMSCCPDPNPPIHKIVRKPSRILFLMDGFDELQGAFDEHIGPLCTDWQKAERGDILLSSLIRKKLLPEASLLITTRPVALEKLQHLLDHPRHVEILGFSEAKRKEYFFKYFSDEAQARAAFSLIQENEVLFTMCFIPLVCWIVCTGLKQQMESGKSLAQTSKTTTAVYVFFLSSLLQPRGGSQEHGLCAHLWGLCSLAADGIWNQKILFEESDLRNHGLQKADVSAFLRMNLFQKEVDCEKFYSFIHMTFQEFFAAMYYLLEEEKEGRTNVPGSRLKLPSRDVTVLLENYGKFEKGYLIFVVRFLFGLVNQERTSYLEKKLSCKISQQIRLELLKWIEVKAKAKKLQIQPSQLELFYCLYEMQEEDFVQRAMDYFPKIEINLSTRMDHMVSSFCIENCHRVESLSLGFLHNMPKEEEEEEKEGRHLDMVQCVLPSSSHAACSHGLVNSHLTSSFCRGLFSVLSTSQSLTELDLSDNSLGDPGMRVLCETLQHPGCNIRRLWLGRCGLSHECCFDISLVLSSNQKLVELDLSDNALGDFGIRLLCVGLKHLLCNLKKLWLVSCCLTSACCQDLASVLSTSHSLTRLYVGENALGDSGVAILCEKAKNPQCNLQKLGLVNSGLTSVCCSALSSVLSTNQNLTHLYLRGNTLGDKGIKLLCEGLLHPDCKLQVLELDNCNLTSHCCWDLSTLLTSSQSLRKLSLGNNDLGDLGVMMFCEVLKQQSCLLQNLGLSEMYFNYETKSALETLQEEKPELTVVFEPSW
Compound,IC50 [1] [µM],IC50 [2] [µM]
"CCN1CCC12CCN(S(=O)(=O)c1nnc(Nc3c4c(cc5c3CCC5)CCC4)[nH]1)CC2 [Example 257, 5-((1-ethyl-1,7-diazaspiro[35]nonan-7-yl)sulfonyl)-N-(1,2,3,5,6,7-hexahydro-s-indacen-4-yl)-4H-1,2,4-triazol-3-amine]",≤ 0.5,≤ 0.5
"COc1cc(-c2ccc3c(c2Nc2nnc(S(=O)(=O)N4CCC5(CCCN5C)CC4)[nH]2)CCC3)ccn1 [Example 258, N-(5-(2-methoxypyridin-4-yl)-2,3-dihydro-1H-inden-4-yl)-5-((1-methyl-1,8-diazaspiro[4.5]decan-8-yl)sulfonyl)-4H-1,2,4-triazol-3-amine]",≤ 1,≤ 0.5
"COc1cc(-c2cc(F)cc(C(C)C)c2Nc2nnc(S(=O)(=O)N3CCC4(CCCN4C)CC3)[nH]2)ccn1 [Example 260, N-(4-fluoro-2-isopropyl-6-(2-methoxypyridin-4-yl)phenyl)-5-((1-methyl-1,8-diazaspiro[4.5]decan-8-yl)sulfonyl)-4H-1,2,4-triazol-3-amine]",≤ 5,≤ 0.5
"COc1cc(-c2cc(F)cc(C(C)C)c2Nc2nnc(S(=O)(=O)N3CCC(N(C)C)CC3)[nH]2)ccn1 [Example 261, 1-((5-((4-fluoro-2-isopropyl-6-(2-methoxypyridin-4-yl)phenyl)amino)-4H-1,2,4-triazol-3-yl)sulfonyl)-N,N-dimethylpiperidin-4-amine]",≤ 1,≤ 0.5
"CN1CCC2(CC1)CN(S(=O)(=O)c1nnc(Nc3c4c(cc5c3CCC5)CCC4)[nH]1)C2 [Example 275, N-(1,2,3,5,6,7-hexahydro-s-indacen-4-yl)-5-((7-methyl-2,7-diazaspiro[3-5]nonan-2-yl)sulfonyl)-4H-1,2,4-triazol-3-amine]",≤ 1,≤ 5
"CN1CCC2(CCN(S(=O)(=O)c3nnc(Nc4c5c(cc6c4CCC6)CCC5)[nH]3)C2)C1 (stereo not drawn) [Example 277, N-(1,2,3,5,6,7-hexahydro-s-indacen-4-yl)-5-((7-methyl-2,7-diazaspiro[4.4]nonan-2-yl)sulfonyl)-4H-1,2,4-triazol-3-amine]",≤ 1,≤ 0.5
"CNCC1CN(S(=O)(=O)c2nnc(Nc3c4c(cc5c3CCC5)CCC4)[nH]2)C1 [Example 279, N-(1,2,3,5,6,7-hexahydro-s-indacen-4-yl)-5-((3-((methylamino)methyl)azetidin-1-yl)sulfonyl)-4H-1,2,4-triazol-3-amine]",≤ 0.5,≤ 0.5
"CN(C)CC1CCN(S(=O)(=O)c2nnc(Oc3c4c(cc5c3CCC5)CCC4)[nH]2)C1 (stereo not drawn) [Example 286, 1-(1-((5-((1,2,3,5,6,7-hexahydro-s-indacen-4-yl)oxy)-4H-1,2,4-triazol-3-yl)sulfonyl)pyrrolidin-3-yl)-N,N-dimethylmethanamine]",≤ 10,≤ 5
"CNC[C@H]1CCN(S(=O)(=O)c2nnc(Nc3c4c(cc5c3CCC5)CCC4)[nH]2)C1 [Example 288, (R)—N-(1,2,3,5,6,7-hexahydro-s-indacen-4-yl)-5-((3-((methylamino)methyl)pyrrolidin-1-yl)sulfonyl)-4H-1,2,4-triazol-3-amine]",≤ 1,≤ 0.5
"CC(C)(O)C1CCN(S(=O)(=O)c2nnc(Nc3c4c(cc5c3CCC5)CCC4)[nH]2)C1 (stereo not drawn) [Example 289, 2-(1-((5-((1,2,3,5,6,7-hexahydro-s-indacen-4-yl)amino)-4H-1,2,4-triazol-3-yl)sulfonyl)pyrrolidin-3-yl)propan-2-ol]",≤ 5,≤ 1
"CC(CNS(=O)(=O)c1nnc(Nc2c3c(cc4c2CCC4)CCC3)[nH]1)N(C)C (stereo not drawn) [Example 290, N-(2-(dimethylamino)propyl)-5-((1,2,3,5,6,7-hexahydro-s-indacen-4-yl)amino)-4H-1,2,4-triazole-3-sulfonamide]",≤ 5,≤ 5
"CN(C)CC1CN(S(=O)(=O)c2nnc(Nc3c4c(cc5c3CCC5)CCC4)[nH]2)C1 [Example 291, 5-((3-((dimethylamino)methyl)azetidin-1-yl)sulfonyl)-N-(1,2,3,5,6,7-hexahydro-s-indacen-4-yl)-4H-1,2,4-triazol-3-amine]",≤ 0.5,≤ 0.5
"CC1(O)CCN(S(=O)(=O)c2nnc(Nc3c4c(cc5c3CCC5)CCC4)[nH]2)CC1 [Example 292, 1-((5-((1,2,3,5,6,7-hexahydro-s-indacen-4-yl)amino)-4H-1,2,4-triazol-3-yl)sulfonyl)-4-methylpiperidin-4-ol]",≤ 5,≤ 5
"CC(C)(O)C1CCN(S(=O)(=O)c2nnc(Nc3c4c(cc5c3CCC5)CCC4)[nH]2)CC1 [Example 293, 2-(1-((5-((1,2,3,5,6,7-hexahydro-s-indacen-4-yl)amino)-4H-1,2,4-triazol-3-yl)sulfonyl)piperidin-4-yl)propan-2-ol]",≤ 10,≤ 0.5
"CN1CCCNC(=O)C12CCN(S(=O)(=O)c1nnc(Nc3c4c(cc5c3CCC5)CCC4)[nH]1)CC2 [Example 294, 3-((5-((1,2,3,5,6,7-hexahydro-s-indacen-4-yl)amino)-4H-1,2,4-triazol-3-yl)sulfonyl)-7-methyl-3,7,11-triazaspiro[5.6]dodecan-12-one]",≤ 5,≤ 0.5
"CN1CCOC2(C1)CN(S(=O)(=O)c1nnc(Nc3c4c(cc5c3CCC5)CCC4)[nH]1)C2 [Example 295, N-(1,2,3,5,6,7-hexahydro-s-indacen-4-yl)-5-((8-methyl-5-oxa-2,8-diazaspiro[3-5]nonan-2-yl)sulfonyl)-4H-1,2,4-triazol-3-amine]",≤ 1,≤ 0.5
"COc1cc(-c2cc(F)cc(C3CC3)c2Nc2nnc(S(=O)(=O)N3CCC(N(C)C)CC3)[nH]2)ccn1 [Example 301, 1-((5-((2-cyclopropyl-4-fluoro-6-(2-methoxypyridin-4-yl)phenyl)amino)-1H-1,2,4-triazol-3-yl)sulfonyl)-N,N-dimethylpiperidin-4-amine]",≤ 5,≤ 0.5
"CN(C)CC1CCN(S(=O)(=O)c2nnc(Nc3c4c(cc5c3CCC5)CCC4)[nH]2)CC1 [Example 304, 5-((4-((dimethylamino)methyl)piperidin-1-yl)sulfonyl)-N-(1,2,3,5,6,7-hexahydro-s-indacen-4-yl)-4H-1,2,4-triazol-3-amine]",≤ 1,≤ 0.5
"CN(C)CC1CCCN(S(=O)(=O)c2nnc(Nc3c4c(cc5c3CCC5)CCC4)[nH]2)C1 (stereo not drawn) [Example 305, 5-((3-((dimethylamino)methyl)piperidin-1-yl)sulfonyl)-N-(1,2,3,5,6,7-hexahydro-s-indacen-4-yl)-4H-1,2,4-triazol-3-amine]",≤ 5,≤ 5
"O=S(=O)(c1nnc(Nc2c3c(cc4c2CCC4)CCC3)[nH]1)N1CC[C@H](CN2CCCC2)C1 [Example 306, (R)—N-(1,2,3,5,6,7-hexahydro-s-indacen-4-yl)-5-((3-(pyrrolidin-1-ylmethyl)pyrrolidin-1-yl)sulfonyl)-4H-1,2,4-triazol-3-amine]",≤ 1,≤ 1
"O=S(=O)(c1nnc(Nc2c3c(cc4c2CCC4)CCC3)[nH]1)N1CC[C@H](CNC2CC2)C1 [Example 307, (R)-5-((3-((cyclopropylamino)methyl)pyrrolidin-1-yl)sulfonyl)-N-(1,2,3,5,6,7-hexahydro-s-indacen-4-yl)-4H-1,2,4-triazol-3-amine]",≤ 10,≤ 1
"CCNC[C@H]1CCN(S(=O)(=O)c2nnc(Nc3c4c(cc5c3CCC5)CCC4)[nH]2)C1 [Example 308, (R)-5-((3-((ethylamino)methyl)pyrrolidin-1-yl)sulfonyl)-N-(1,2,3,5,6,7-hexahydro-s-indacen-4-yl)-4H-1,2,4-triazol-3-amine]",≤ 5,≤ 0.5
"Cc1cc2c(c(Nc3nnc(S(C)(=O)=O)[nH]3)c1-c1ccnc(OC3CCN(C)CC3)c1)CCC2 [Example 317, N-(6-methyl-5-(2-((1-methylpiperidin-4-yl)oxy)pyridin-4-yl)-2,3-dihydro-1H-inden-4-yl)-5-(methylsulfonyl)-4H-1,2,4-triazol-3-amine]",≤ 5,≤ 1
"Cc1cc2c(c(Nc3nnc(S(=O)(=O)c4ccccc4)[nH]3)c1-c1ccnc(OC3CCN(C)CC3)c1)CCC2 [Example 318, N-(6-methyl-5-(2-((1-methylpiperidin-4-yl)oxy)pyridin-4-yl)-2,3-dihydro-1H-inden-4-yl)-5-(phenylsulfonyl)-4H-1,2,4-triazol-3-amine]",≤ 5,≤ 0.5
"COc1cc(-c2c(C)cc3c(c2Nc2nnc(S(=O)(=O)c4ccccc4)[nH]2)CCC3)ccn1 [Example 319, N-(5-(2-methoxypyridin-4-yl)-6-methyl-2,3-dihydro-1H-inden-4-yl)-5-(phenylsulfonyl)-4H-1,2,4-triazol-3-amine]",≤ 10,≤ 0.5
"CN(C)C(=O)Cn1ccc(S(=O)(=O)c2nnc(Nc3c4c(cc5c3CCC5)CCC4)[nH]2)n1 [Example 320, 2-(3-((5-((1,2,3,5,6,7-hexahydro-s-indacen-4-yl)amino)-4H-1,2,4-triazol-3-yl)sulfonyl)-1H-pyrazol-1-yl)-N,N-dimethylacetamide]",≤ 5,≤ 0.5
"NS(=O)(=O)c1ccccc1S(=O)(=O)c1nnc(Nc2c3c(cc4c2CCC4)CCC3)[nH]1 [Example 325, 2-((5-((1,2,3,5,6,7-hexahydro-s-indacen-4-yl)amino)-4H-1,2,4-triazol-3-yl)sulfonyl)benzenesulfonamide]",≤ 10,≤ 0.5

# Source: patent US20210261512A1, “NOVEL COMPOUNDS” (INFLAZOME LIMITED, priority 2018, published 2021)
